For one assay, the target named is T1, 5-HT1A receptor (Rattus norvegicus, UniProt P19327).
T1 construct: The cerebral cortex was homogenized in 10 volumes of ice-cold Tris buffer; from tissue; host or cells: rat cerebral cortex membranes
T1 sequence (P19327 1-422): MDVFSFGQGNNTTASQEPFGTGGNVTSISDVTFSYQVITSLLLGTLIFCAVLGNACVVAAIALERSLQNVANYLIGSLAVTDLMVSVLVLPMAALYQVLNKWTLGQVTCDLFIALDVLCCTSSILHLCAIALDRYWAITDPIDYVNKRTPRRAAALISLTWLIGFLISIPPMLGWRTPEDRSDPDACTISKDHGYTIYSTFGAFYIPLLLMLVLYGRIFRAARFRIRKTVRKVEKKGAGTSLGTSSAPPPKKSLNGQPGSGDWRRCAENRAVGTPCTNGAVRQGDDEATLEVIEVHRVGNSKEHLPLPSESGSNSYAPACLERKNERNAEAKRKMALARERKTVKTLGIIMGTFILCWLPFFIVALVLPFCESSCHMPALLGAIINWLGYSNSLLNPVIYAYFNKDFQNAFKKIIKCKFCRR
Briefly: Radioligand binding assay, 5-HT1A receptor ([3H]-8-OH-DPAT, rat cerebral cortex membranes). The settings on record: for Ki: rat cerebral cortex membranes, 0.6 nM [3H]-8-OH-DPAT, hydrochloride salts, read-out: Ki ± SEM (5-HT1A). As to the method:
(§1) For all receptor binding assays, male Sprague-Dawley rats (Rattus norvegicus albinus), weighing 180-200 g, were killed by decapitation and the brains rapidly removed and dissected. Tissues were stored at −80° C. for subsequent use and homogenized on a Polytron PT-10 homogenizer. Membrane suspensions were centrifuged on a Beckman J2-HS instrument.
The cerebral cortex was homogenized in 10 volumes of ice-cold Tris buffer (50 mM Tris-HCl, pH 7.7 at 25° C.) and centrifuged at 28000 g for 15 min. The membrane pellet was washed twice by resuspension and centrifugation. After the second wash the resuspended pellet was incubated at 37° C. for 10 min. Membranes were then collected by centrifugation and the final pellet was resuspended in 50 mM Tris-HCl, 5 mM MgSO4, and 0.5 mM EDTA buffer (pH 7.4 at 37° C.). Fractions of 100 μL of the final membrane suspension (about 1 mg of protein) were incubated at 37° C. for 15 min with 0.6 nM [^3]-8-OH-DPAT (133 Ci/mmol), in the presence or absence of the competing drug, in a final volume of 1.1 mL of assay buffer (50 mM Tris-HCl, 10 nM clonidine, 30 nM prazosin, pH 7.4 at 37° C.). Nonspecific binding was determined with 10 μM 5-HT.
(§2) For all binding assays, competing drug, nonspecific, total and radioligand bindings were defined in triplicate. Incubation was terminated by rapid vacuum filtration through Whatman GF/B filters, presoaked in 0.05% poly(ethylenimine), using a Brandel cell harvester. The filters were then washed with the assay buffer, dried and placed in poly(ethylene) vials to which were added 4 mL of a scintillation cocktail (Aquasol). The radioactivity bound to the filters was measured by liquid scintillation spectrometry. The data were analyzed by an iterative curve-fitting procedure (program Prism, Graph Pad), which provided IC50, Ki, and r^2 values for test compounds, Ki values being calculated from the Cheng and Prusoff equation. The protein concentrations of the rat cerebral cortex and the rat striatum were determined by the method of Lowry, using bovine serum albumin as the standard.

Another assay relates to α1 adrenoceptor. The assay can be described thus: Radioligand binding assay, α1 adrenoceptor ([3H]prazosin, rat cerebral cortex membranes). To be noted: for percent value (α1) / Ki: rat cerebral cortex membranes; for percent value (α1): [3H]prazosin, footnote to * not given; for Ki: 0.2 nM [3H]prazosin, hydrochloride salts, read-out: Ki ± SEM (α1). The method, then: as §1
The cerebral cortex was homogenized in 20 volumes of ice-cold buffer (50 mM Tris-HCl, 10 mM MgCl2, pH 7.4 at 25° C.) and centrifuged at 30000 g for 15 min. Pellets were washed twice by resuspension and centrifugation. Final pellets were resuspended in the same buffer. Fractions of the final membrane suspension (about 250 μg of protein) were incubated at 25° C. for 30 min with 0.2 nM [^3H]prazosin (23 Ci/mmol), in the presence or absence of six concentrations of the competing drug, in a final volume of 2 mL of buffer. Nonspecific binding was determined with 10 μM phentolamine.
as §2

Regarding `CC[C@@H]1CN(c2cccc3ccccc23)CCN1CCCCN1C(=O)C2CCCN2C1=O` (mixture of isomers) [(l), (2R,7aRS)-(−)-2-[4-[2-Ethyl-4-(naphth-1-yl)piperazin-1-yl]butyl]-1,3-dioxoperhydropyrrolo [1,2-c]imidazole], on 5-HT1A receptor, the Ki was 2.4 ± 0.3 nM. Besides, the “percent value (α1)” value in the assay with α1 adrenoceptor turned out to be 87%*.
Turning to `C[C@H]1CN(c2cccc3ccccc23)CCN1CCCCN1CC(=O)N2CCCC2C1=O` (mixture of isomers) [(b), (2S, 8aRS)-2-[4-[4-(Naphth-1-yl)-2-methylpiperazin-1-yl]butyl]-1,4-dioxoperhydropyrrolo[1,2-a]pyrazine], the Ki was 15.3 ± 1.8 nM on 5-HT1A receptor and 34.4 ± 1.2 nM at α1 adrenoceptor.
Turning to `C[C@H]1CN(c2cccc3ccoc23)CCN1CCCN1C(=O)C2CCCN2C1=O` (mixture of isomers) [(k), (2S,7aRS)-(−)-2-[3-[4-(1-Benzofuran-7-yl)-2-methylpiperazin-1-yl]propyl]-1,3-dioxoperhydropyrrolo[1,2-c]imidazole], the Ki at 5-HT1A receptor came to 6.7 ± 0.5 nM. In the assay on α1 adrenoceptor, the “percent value (α1)” value is given as 64%*.
`CC[C@@H]1CN(c2cccc(OC)c2)CCN1CCCCN1C(=O)C2CCCN2C1=O` (mixture of isomers) [(o), (2R,7aRS)-(−)-2-[4-[2-Ethyl-4-(3-methoxyphenyl)piperazin-1-yl]butyl]-1,3-dioxoperhydropyrrolo[1,2-c]imidazole]: the Ki on 5-HT1A receptor was determined as 21 ± 3 nM. In the assay on α1 adrenoceptor, the “percent value (α1)” value worked out at 64%*.
As to `C[C@H]1CN(c2cccc3ccccc23)CCN1CN1CC(=O)N2CCC[C@@H]2C1=O` [(f), (2S,8aR)-2-[[4-(Naphth-1-yl)-2-methylpiperazin-1-yl]methyl]-1,4-dioxoperhydropyrrolo[1,2-a]pyrazine], the Ki at 5-HT1A receptor was 6.4 ± 0.1 nM; at α1 adrenoceptor, more than 1000 nM.
Turning to `O=C1C2CCCN2C(=O)CN1CCCCN1CCN(c2cccc3c2OCCCO3)CC1` (stereo not drawn) [Compound (h), 2-[4-[4-(3,4-Dihydro-2H-1,5-benzodioxepin-6-yl)piperazin-1-yl]butyl]-1,4-dioxoperhydropyrrolo[1,2-a]pyrazine], the Ki at 5-HT1A receptor came to 3.1 ± 0.9 nM; at α1 adrenoceptor, 348 ± 21 nM. The “binding to the 5-HT1A receptor (in words)” value at 5-HT1A receptor (see table 1) is “low nanomolar range”. Also, the “binding to the α1 adrenoceptor (in words)” value with α1 adrenoceptor (see table 1) is reported as “nanomolar range”.
As for `C[C@@H]1CN(c2cccc(Cl)c2)CCN1CCCN1C(=O)C2CCCN2C1=O` (mixture of isomers) [(i), (2R,7aRS)-(−)-2-[3-[4-(3-Chlorophenyl)-2-methylpiperazin-1-yl]propyl]-1,3-dioxoperhydropyrrolo[1,2-c]imidazole], the Ki at 5-HT1A receptor stood at 11.7 ± 3.4 nM. Further, the “percent value (α1)” value with α1 adrenoceptor worked out at 76%*.
Regarding `C[C@@H]1CN(c2cccc3ccccc23)CCN1CCCCN1CC(=O)N2CCCC2C1=O` (mixture of isomers) [(a), (2R, 8aRS)-2-[4-[4-(Naphth-1-yl)-2-methylpiperazin-1-yl]butyl]-1,4-dioxoperhydropyrrolo[1,2-a]pyrazine], the Ki on 5-HT1A receptor turned out to be 4.2 ± 0.9 nM; at α1 adrenoceptor it was 20.1 ± 0.8 nM.
Consider `C[C@@H]1CN(c2cccc3nc[nH]c23)CCN1CCCCN1C(=O)C2CCCN2C1=O` (mixture of isomers) [(m), (2R,7aRS)-(−)-2-[4-[4-(Benzimidazol-4-yl)-2-methylpiperazin-1-yl]butyl]-1,3-dioxoperhydropyrrolo[1,2-c]imidazole], for which the figures for the Ki on 5-HT1A receptor and at α1 adrenoceptor were 2.3 ± 0.3 nM and more than 1000 nM, respectively.
As for `COc1cccc(N2CCN(CCCN3C(=O)C4CCCN4C3=O)[C@@H](C)C2)c1` (mixture of isomers) [(j), (2S,7aRS)-(+)-2-[3-[4-(3-Methoxyphenyl)-2-methylpiperazin-1-yl]propyl]-1,3-dioxoperhydropyrrolo[1,2-c]imidazole], the Ki at 5-HT1A receptor turned out to be 21.9 ± 5.1 nM. In addition, the “percent value (α1)” value in the assay on α1 adrenoceptor is on record as 56%*.
On to `C[C@H]1CN(c2cccc3ccccc23)CCN1CN1CC(=O)N2CCC[C@H]2C1=O` [(d), (2S,8aS)-2-[[4-(Naphth-1-yl)-2-methylpiperazin-1-yl]methyl]-1,4-dioxoperhydropyrrolo[1,2-a]pyrazine], for which the Ki on 5-HT1A receptor is 2.5 ± 0.1 nM; at α1 adrenoceptor, more than 1000 nM.

Values taken from patent US20090036455A1, “ARYLPIPERAZINE DERIVATIVE AND USE THEREOF AS 5-HT1A RECEPTOR LIGANDS” (CEPA SCHWARZ PHARMA, S.L., priority 2004, published 2009).
